Read-outs that look alike come from different tables or passages of the source.
What was measured:
[1] = Acute toxicity in mice, oral LD50 (method of Miller & Tainter); details: mouse, in vivo, mortality determined 48 hours after administration
Experimental: The chemical compounds previously described were submitted to toxicity tests. It was determined in mice by oral administration and was calculated in accordance with the method of MILLER & TAINTER. It is generally low and greater than 1000 mg/kg.

Solubility properties = type: physicochemical; details: for Solubility in ethyl alcohol: ethyl alcohol / ethanol / alcohol
[2] = system: writhings induced by phenylbenzoquinone; assay: Writhing test, phenylbenzoquinone (analgetic); type: in vivo, mice; details: 300 mg/kg oral, t + 35 to t + 40 min
Experimental: The analgetic properties of certain compounds were shown in mice by the "writhing test" method, that is to say with reference to the writhings induced by phenylbenzoquinone. The administration of the product is effected orally at time t; it is followed by the intraperitoneal injection of 0.2% phenylbenzoquinone at t + 30 min. The determination of the writhings is effected from t + 35 min. to t + 40 min. One lot of animals receiving only the vehicle (5% Tween 80 in 0.9% NaCl) serves as control.

carrageenin edema = assay: Carrageenin edema test in rats (antiinflammatory); type: in vivo; details: for % var. / action (variation of paw volume increase vs controls) / change in vivo at 75 mg/kg: 75 mg/kg oral; for change in vivo at 75 mg/kg / change in vivo at 200 mg/kg / change in vivo at 300 mg/kg / change in vivo at 30 mg/kg / change in vivo at 50 mg/kg / change in vivo at 100 mg/kg: Rattus norvegicus; for change in vivo at 300 mg/kg: 300 mg/kg oral
Experimental: The antiinflammatory properties were shown by the carrageenin edema test in rats, the products having been administered orally 1 hour before the intrapodal injection of 0.05 ml of a 2% suspension of carrageenin; the volume of the rat's paw was measured by plethysmoscopy 3, 4 and 6 hours afterwards.
The experiment concerned for each lot […]; one lot of animals receiving only the vehicle (2 ml/100 g of Tween + water) which served for the administration of the products, constituted the control lot. The following table sets forth the results obtained: […]

total blood cholesterol = assay: Total blood cholesterol in rats on a normal diet (hypocholesterolemizing); type: in vivo; details: 300 mg/kg oral, 4 consecutive days; 5th day, fasted 16 hours
Experimental: One lot of rats served as control.
The sampling was effected on the 5th day after 16 hours fasting, by cardiac puncture and the total blood cholesterol determination was effected by the Liebermann-Burchardt colorimetric method.

[3] = system: writhings induced by acetic acid; assay: Writhing test, acetic acid (analgetic); type: in vivo, male mouse; details: 200 mg/kg by mouth, t + 60 to t + 70 min
Experimental: The administration of the compounds is effected by mouth at the time t. […] The determination of the writhings is effected from t + 60 min. to t + 70 min. The vehicle used for the administration of the products is a 5% solution of Tween 80 in 0.9% NaCl which will serve as control.

[4] = 3 hrs, read-out: % increase in volume of the paw, mean (m)
[5] = 4 hrs, read-out: % increase in volume of the paw, mean (m)
[6] = 6 hrs, read-out: % increase in volume of the paw, mean (m)
[7] = read-out: % mean variation of the volume of the paw at 3, 4 and 6 hrs
[8] = 200 mg/kg oral, + 3 hrs, read-out: % increase in volume of the paw, mean (m)
[9] = 200 mg/kg oral, + 3 hrs, read-out: Action (variation of paw volume increase vs controls)
[10] = 200 mg/kg oral, + 4 hrs, read-out: % increase in volume of the paw, mean (m)
[11] = 200 mg/kg oral, + 4 hrs, read-out: Action (variation of paw volume increase vs controls)
[12] = 200 mg/kg oral, + 6 hrs, read-out: % increase in volume of the paw, mean (m)
[13] = 200 mg/kg oral, + 6 hrs, read-out: Action (variation of paw volume increase vs controls)

C=C(CC(=O)c1ccc(-c2ccccc2)cc1)C(=O)O [F 1377, 2-methylene 4-oxo 4-(paraphenylphenyl) butyric acid]
LD50 at 48 h [1]: > 2000 mg/kg | Solubility in N-methyl pyrrolidone (Solubility properties): 15% | Solubility in dimethyl sulfoxide (Solubility properties): 10% | Solubility in ether (Solubility properties; in words): insoluble | Solubility in propylene glycol (in words) (Solubility properties; propylene glycol, in words): insoluble | Solubility in water in the form of sodium salt (in words) (Solubility properties; sodium salt, water, in words): insoluble | Solubility in water (Solubility properties; water, in words): insoluble | % Decrease (of writhings) [2]: 68,6% | Mean No. of Writhings [2]: 8,00 | % var. / action (variation of paw volume increase vs controls) (carrageenin edema; 3 hrs): -37% | % var. / action (variation of paw volume increase vs controls) (carrageenin edema; 4 hrs): -37% | % var. / action (variation of paw volume increase vs controls) (carrageenin edema; 6 hrs): -18% | change in vivo at 75 mg/kg (carrageenin edema; [4]): 28.8% | change in vivo at 75 mg/kg (carrageenin edema; [5]): 30.5% | change in vivo at 75 mg/kg (carrageenin edema; [6]): 37.2% | change in vivo at 75 mg/kg (carrageenin edema; [7]): -30% | change in vivo at 200 mg/kg (carrageenin edema; [8]): 27.4% | change in vivo at 200 mg/kg (carrageenin edema; [9]): -46% | change in vivo at 200 mg/kg (carrageenin edema; [10]): 28% | change in vivo at 200 mg/kg (carrageenin edema; [11]): -43% | change in vivo at 200 mg/kg (carrageenin edema; [12]): 28.4% | change in vivo at 200 mg/kg (carrageenin edema; [13]): -32% | change in vivo at 200 mg/kg (carrageenin edema; 200 mg/kg oral, read-out: % mean variation of the volume of the paw at 3, 4 and 6 hrs): -40%

CC(=CC(=O)c1ccc(-c2ccccc2Cl)cc1)C(=O)O [F 1439, 2-methyl 4-oxo 4-(4'-O-chlorophenylphenyl) 2-butenoic acid]
LD50 at 48 h [1]: 2370 mg/kg | Solubility in N-methyl pyrrolidone (Solubility properties): 25% | Solubility in chloroform (in words) (Solubility properties; chloroform, in words): Soluble | Solubility in NN-dimethyl acetamide (Solubility properties): 20% | Solubility in ether (Solubility properties; in words): Soluble | Solubility in water (Solubility properties; water, in words): insoluble | Total blood cholesterol, M (total blood cholesterol): 0,67 | % var. / action (variation of paw volume increase vs controls) (carrageenin edema; 3 hrs): -36% | % var. / action (variation of paw volume increase vs controls) (carrageenin edema; 4 hrs): -33% | % var. / action (variation of paw volume increase vs controls) (carrageenin edema; 6 hrs): -28% | change in vivo at 75 mg/kg (carrageenin edema; [4]): 38% | change in vivo at 75 mg/kg (carrageenin edema; [5]): 40% | change in vivo at 75 mg/kg (carrageenin edema; [6]): 40% | change in vivo at 75 mg/kg (carrageenin edema; [7]): -32%

C=C(CC(=O)c1ccc(F)cc1)C(=O)O [F 1376, 2-methylene 4-oxo 4-fluorophenyl butyric acid]
LD50 at 48 h [1]: 1400 mg/kg | Solubility in ethyl alcohol (Solubility properties): 20% | Solubility in propylene glycol (Solubility properties; propylene glycol): 10% | Solubility in water (Solubility properties; water, in words): insoluble | Total blood cholesterol, M (total blood cholesterol): 0,66 | change in vivo at 300 mg/kg (carrageenin edema; + 3 hrs, read-out: % increase in volume of the paw, mean (m)): 50.8% | change in vivo at 300 mg/kg (carrageenin edema; + 3 hrs, read-out: Action (variation of paw volume increase vs controls)): -17% | change in vivo at 300 mg/kg (carrageenin edema; + 4 hrs, read-out: % increase in volume of the paw, mean (m)): 51.5% | change in vivo at 300 mg/kg (carrageenin edema; + 4 hrs, read-out: Action (variation of paw volume increase vs controls)): -15% | change in vivo at 300 mg/kg (carrageenin edema; + 6 hrs, read-out: % increase in volume of the paw, mean (m)): 54.8% | change in vivo at 300 mg/kg (carrageenin edema; + 6 hrs, read-out: Action (variation of paw volume increase vs controls)): -4% | change in vivo at 300 mg/kg (carrageenin edema; [7]): -12%

C=C(CC(=O)c1ccc(-c2ccccc2Cl)cc1)C(=O)O [F 1379, 2-methylene 4-oxo 4-(4'-orthochlorophenylphenyl) butyric acid]
LD50 at 48 h [1]: 1500 mg/kg | Solubility in NN-dimethyl acetamide (Solubility properties): 25% | Solubility in dimethyl sulfoxide (Solubility properties): 20% | Solubility in ethyl alcohol (Solubility properties): 1% | Solubility in water (Solubility properties; water, in words, listed as Example 6): insoluble | Total blood cholesterol, M (total blood cholesterol): 0,62 | % increase in volume of the paw, cumulative (m) (carrageenin edema; 30 mg/kg oral): 179,6% | Action, cumulative (carrageenin edema; 30 mg/kg oral): -11,7% | % increase in volume of the paw, cumulative (m) (carrageenin edema; 50 mg/kg oral): 106,1% | Action, cumulative (carrageenin edema; 50 mg/kg oral): -44,4% | % increase in volume of the paw, cumulative (m) (carrageenin edema; 100 mg/kg oral): 83,6% | Action, cumulative (carrageenin edema; 100 mg/kg oral): -56,2% | % increase in volume of the paw, cumulative (m) (carrageenin edema; 200 mg/kg oral): 77,5% | Action, cumulative (carrageenin edema; 200 mg/kg oral): -59,4% | change in vivo at 30 mg/kg (carrageenin edema; 30 mg/kg oral, + 3 hrs, read-out: % increase in volume of the paw, mean (m)): 58.4% | change in vivo at 30 mg/kg (carrageenin edema; 30 mg/kg oral, + 3 hrs, read-out: Action (variation of paw volume increase vs controls)): -17.6% | change in vivo at 30 mg/kg (carrageenin edema; 30 mg/kg oral, + 4 hrs, read-out: % increase in volume of the paw, mean (m)): 60.1% | change in vivo at 30 mg/kg (carrageenin edema; 30 mg/kg oral, + 4 hrs, read-out: Action (variation of paw volume increase vs controls)): -9.6% | change in vivo at 30 mg/kg (carrageenin edema; 30 mg/kg oral, + 6 hrs, read-out: % increase in volume of the paw, mean (m)): 61.1% | change in vivo at 30 mg/kg (carrageenin edema; 30 mg/kg oral, + 6 hrs, read-out: Action (variation of paw volume increase vs controls)): -7% | change in vivo at 50 mg/kg (carrageenin edema; 50 mg/kg oral, + 3 hrs, read-out: % increase in volume of the paw, mean (m)): 24.4% | change in vivo at 50 mg/kg (carrageenin edema; 50 mg/kg oral, + 3 hrs, read-out: Action (variation of paw volume increase vs controls)): -58.2% | change in vivo at 50 mg/kg (carrageenin edema; 50 mg/kg oral, + 4 hrs, read-out: % increase in volume of the paw, mean (m)): 34.4% | change in vivo at 50 mg/kg (carrageenin edema; 50 mg/kg oral, + 4 hrs, read-out: Action (variation of paw volume increase vs controls)): -47% | change in vivo at 50 mg/kg (carrageenin edema; 50 mg/kg oral, + 6 hrs, read-out: % increase in volume of the paw, mean (m)): 47.4% | change in vivo at 50 mg/kg (carrageenin edema; 50 mg/kg oral, + 6 hrs, read-out: Action (variation of paw volume increase vs controls)): -29.7% | change in vivo at 100 mg/kg (carrageenin edema; 100 mg/kg oral, + 3 hrs, read-out: % increase in volume of the paw, mean (m)): 18.7% | change in vivo at 100 mg/kg (carrageenin edema; 100 mg/kg oral, + 3 hrs, read-out: Action (variation of paw volume increase vs controls)): -67.9% | change in vivo at 100 mg/kg (carrageenin edema; 100 mg/kg oral, + 4 hrs, read-out: % increase in volume of the paw, mean (m)): 26.1% | change in vivo at 100 mg/kg (carrageenin edema; 100 mg/kg oral, + 4 hrs, read-out: Action (variation of paw volume increase vs controls)): -59.9% | change in vivo at 100 mg/kg (carrageenin edema; 100 mg/kg oral, + 6 hrs, read-out: % increase in volume of the paw, mean (m)): 38.8% | change in vivo at 100 mg/kg (carrageenin edema; 100 mg/kg oral, + 6 hrs, read-out: Action (variation of paw volume increase vs controls)): -42.5% | change in vivo at 200 mg/kg (carrageenin edema; [8]): 19.6% | change in vivo at 200 mg/kg (carrageenin edema; [9]): -66.4% | change in vivo at 200 mg/kg (carrageenin edema; [10]): 25.1% | change in vivo at 200 mg/kg (carrageenin edema; [11]): -61.3% | change in vivo at 200 mg/kg (carrageenin edema; [12]): 32.8% | change in vivo at 200 mg/kg (carrageenin edema; [13]): -51.3% | % Decrease (of writhings) [3]: 18,4% | Mean No. of Writhings [3]: 31,8

From patent publication US4008323A, “Method of reducing cholesterol using certain aromatic keto acids” (Pierre Fabre S.A., priority 1974, dated 1977)
